# Numbers after ± are expanded uncertainties.
# Tests used:
# [1] = Crystal; DTA
# [2] = Molar enthalpy of transition or fusion; conditions: Crystal; DSC
smiles,measurement,setting,value
CCCCCCCCCCCCCCCCCCCCCCCCCCCCO [1-octacosanol],Normal melting temperature,[1],82.8 ± 1.1 °C
same,Molar enthalpy of transition or fusion,[2],25.9 ± 0.598 kcal/mol

# Reference: the NIST ThermoML archive (doi:10.1016/j.jct.2017.02.025)
